Literature values, collected in paper PMC7765409 (International Journal of Molecular Sciences, 2020).

Tests used:
Parameters in all cases: method as in AstraZeneca data repository
Conditions in all cases: median log of IC50/EC50/Ki/Kd annotations, highest value; ref AstraZeneca data repository; cited from earlier work
CDK8 = test system: CDK8
CDK9 = test system: CDK9
CDK5 = test system: CDK5
CDK12 = test system: CDK12
CDK16 = test system: CDK16
CDK5R1 = test system: CDK5R1

Structure (SMILES)	pXC50 CDK8 (CDK8)	pXC50 CDK9 (CDK9)	pXC50 CDK5 (CDK5)	pXC50 CDK12 (CDK12)	pXC50 CDK16 (CDK16)	pXC50 CDK5R1 (CDK5R1)
Cc1ncc(-c2nc(Nc3ccc(N4CCN(C(=O)CO)CC4)cc3)ncc2F)n1C(C)C [C3]	5.60					
CNC(=O)c1nn(C)c2c1C(C)(C)Cc1cnc(Nc3ccc(N4CCN(C)CC4)cc3)nc1-2 [C16, Milciclib]		5.60	6.58	5.34	7.10	6.58
